Measurements taken from ChEMBL document CHEMBL5360655, “Design, Synthesis, and Biological Evaluation of Novel P2X7 Receptor Antagonists for the Treatment of Septic Acute Kidney Injury” (J Med Chem, 2023).
pIC50: −log10 of the molar value. The source made the active and inactive calls. The calls are words filed in the database; no cut-off is given here.

Tests used:
[1] = molecular target: T1, P2X purinoceptor 7 (Homo sapiens) (UniProt Q99572); assay: Antagonist activity at human P2X7 receptor expressed in HEK293 cells assessed as inhibition of ATP-induced receptor pore formation at 1 uM by propidium iodide dye uptake based fluorescence analysis; assay type: cell-based; details: filed as antagonist
T1 sequence (whole entry): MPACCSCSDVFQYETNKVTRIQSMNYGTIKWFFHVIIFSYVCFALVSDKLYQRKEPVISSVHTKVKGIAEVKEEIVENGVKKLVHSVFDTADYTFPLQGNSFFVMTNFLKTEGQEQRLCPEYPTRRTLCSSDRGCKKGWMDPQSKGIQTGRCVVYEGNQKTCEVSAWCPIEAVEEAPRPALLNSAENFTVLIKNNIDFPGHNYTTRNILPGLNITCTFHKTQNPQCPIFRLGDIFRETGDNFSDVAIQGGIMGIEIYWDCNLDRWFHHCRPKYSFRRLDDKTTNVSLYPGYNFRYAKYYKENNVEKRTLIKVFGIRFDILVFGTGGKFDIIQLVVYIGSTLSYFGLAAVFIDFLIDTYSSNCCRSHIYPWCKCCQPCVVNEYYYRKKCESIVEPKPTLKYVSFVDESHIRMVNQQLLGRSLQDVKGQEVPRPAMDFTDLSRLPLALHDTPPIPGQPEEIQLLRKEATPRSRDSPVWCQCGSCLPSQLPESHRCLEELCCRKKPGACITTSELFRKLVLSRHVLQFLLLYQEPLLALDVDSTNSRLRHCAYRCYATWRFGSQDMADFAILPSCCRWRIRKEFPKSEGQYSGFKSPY

[2] = molecular target: T2, P2X purinoceptor 7 (Mus musculus) (UniProt Q9Z1M0); assay: Antagonist activity at mouse P2X7 receptor expressed in HEK293 cells assessed as inhibition of ATP-induced receptor pore formation at 1 uM by propidium iodide dye uptake based fluorescence analysis; assay type: cell-based; details: filed as antagonist
T2 sequence (whole entry): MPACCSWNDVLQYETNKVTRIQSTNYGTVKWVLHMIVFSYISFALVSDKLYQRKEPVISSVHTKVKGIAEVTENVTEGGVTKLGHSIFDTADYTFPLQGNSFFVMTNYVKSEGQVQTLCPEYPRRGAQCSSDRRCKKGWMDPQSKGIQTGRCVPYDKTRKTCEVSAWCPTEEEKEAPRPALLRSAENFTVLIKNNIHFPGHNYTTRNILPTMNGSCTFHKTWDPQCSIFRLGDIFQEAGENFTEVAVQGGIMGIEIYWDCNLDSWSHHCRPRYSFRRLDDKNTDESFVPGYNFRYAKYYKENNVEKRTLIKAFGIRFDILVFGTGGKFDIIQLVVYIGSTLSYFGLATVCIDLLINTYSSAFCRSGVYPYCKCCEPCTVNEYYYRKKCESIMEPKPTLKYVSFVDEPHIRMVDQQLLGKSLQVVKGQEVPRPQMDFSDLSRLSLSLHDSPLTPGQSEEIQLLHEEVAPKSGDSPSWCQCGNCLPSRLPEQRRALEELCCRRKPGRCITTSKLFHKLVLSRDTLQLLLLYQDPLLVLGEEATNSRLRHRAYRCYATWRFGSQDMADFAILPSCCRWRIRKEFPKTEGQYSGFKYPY

[3] = molecular target: T1, P2X purinoceptor 7 (Homo sapiens); assay: Antagonist activity at human P2X7 receptor expressed in HEK293 cells assessed as inhibition of ATP-induced receptor pore formation at 200 nM by propidium iodide dye uptake based fluorescence analysis; assay type: cell-based
[4] = molecular target: T2, P2X purinoceptor 7 (Mus musculus); assay: Antagonist activity at mouse P2X7 receptor expressed in HEK293 cells assessed as inhibition of ATP-induced receptor pore formation at 200 nM by propidium iodide dye uptake based fluorescence analysis; assay type: cell-based
[5] = molecular target: T3, P2X purinoceptor 7 (Homo sapiens, UniProt Q99572); assay: Antagonist activity at human P2X7 receptor expressed in HEK293 cells assessed as inhibition of ATP-induced receptor pore formation by propidium iodide dye uptake based fluorescence analysis; assay type: cell-based
T3 sequence (Q99572 whole entry): T1 sequence (whole entry)

[6] = molecular target: T4, P2X purinoceptor 7 (Mus musculus, UniProt Q9Z1M0); assay: Antagonist activity at mouse P2X7 receptor expressed in HEK293 cells assessed as inhibition of ATP-induced receptor pore formation by propidium iodide dye uptake based fluorescence analysis; assay type: cell-based
T4 sequence (Q9Z1M0 whole entry): T2 sequence (whole entry)

[7] = Intrinsic clearance in human liver microsomes; assay type: ADME, Microsome; details: read-out: CLH
[8] = Half life in human liver microsomes; assay type: ADME, Microsome
[9] = Intrinsic clearance in mouse liver microsomes; assay type: ADME, Microsome; details: read-out: CLH
[10] = Half life in mouse liver microsomes; assay type: ADME, Microsome
[11] = molecular target: T1, P2X purinoceptor 7 (Homo sapiens); assay: Antagonist activity at human P2X7 receptor expressed in HEK293 cells assessed as inhibition of ATP-induced receptor pore formation at 10 uM by propidium iodide dye uptake based fluorescence analysis; assay type: cell-based; details: filed as antagonist
[12] = molecular target: T2, P2X purinoceptor 7 (Mus musculus); assay: Antagonist activity at mouse P2X7 receptor expressed in HEK293 cells assessed as inhibition of ATP-induced receptor pore formation at 10 uM by propidium iodide dye uptake based fluorescence analysis; assay type: cell-based; details: filed as antagonist
[13] = molecular target: T3, P2X purinoceptor 7; assay: Antagonist activity at P2X7 receptor in human THP-1 cells assessed as inhibition of ATP-induced IL-1beta secretion pretreated with LPS for 3 hrs followed by incubation with compound for 40 mins followed by treatment with ATP for 1 hr by ELISA; assay type: cell-based
[14] = AUC(0 to t) in BALB/c mouse at 10 mg/kg, iv measured for 24 hrs by LC-MS/MS analysis; assay type: ADME, organism-based; parameters: time 24 hrs, dose 10 mg/kg, route iv; details: in vivo
[15] = AUC(0 to t) in BALB/c mouse at 10 mg/kg, po measured for 24 hrs by LC-MS/MS analysis; assay type: ADME, organism-based; parameters: time 24 hrs, dose 10 mg/kg, route po; details: in vivo
[16] = Clearance in BALB/c mouse at 10 mg/kg, iv measured for 24 hrs by LC-MS/MS analysis; assay type: ADME, organism-based; details: in vivo
[17] = Clearance in BALB/c mouse at 10 mg/kg, po measured for 24 hrs by LC-MS/MS analysis; assay type: ADME, organism-based; details: in vivo
[18] = Cmax in BALB/c mouse at 10 mg/kg, iv measured for 24 hrs by LC-MS/MS analysis; assay type: ADME, organism-based; parameters: time 24 hrs, dose 10 mg/kg, route iv; details: in vivo
[19] = Cmax in BALB/c mouse at 10 mg/kg, po measured for 24 hrs by LC-MS/MS analysis; assay type: ADME, organism-based; parameters: time 24 hrs, dose 10 mg/kg, route po; details: in vivo
[20] = Half life in BALB/c mouse at 10 mg/kg, iv measured for 24 hrs by LC-MS/MS analysis; assay type: ADME, organism-based; details: in vivo
[21] = Half life in BALB/c mouse at 10 mg/kg, po measured for 24 hrs by LC-MS/MS analysis; assay type: ADME, organism-based; details: in vivo
[22] = Tmax in BALB/c mouse at 10 mg/kg, iv measured for 24 hrs by LC-MS/MS analysis; assay type: ADME, organism-based; details: in vivo
[23] = Tmax in BALB/c mouse at 10 mg/kg, po measured for 24 hrs by LC-MS/MS analysis; assay type: ADME, organism-based; details: in vivo
[24] = Oral bioavailability in BALB/c mouse at 10 mg/kg measured for 24 hrs by LC-MS/MS analysis; assay type: ADME, organism-based; details: in vivo
[25] = system: Mus musculus; assay: Reno-protective activity against LPS-induced acute kidney injury C57BL/6J mouse model assessed as decrease in serum […] level at 10 mg/kg, ip administered twice at 30 mins prior to LPS challenge and 8 hrs post-LPS challenge and measured at 16 hrs post-LPS challenge; assay type: functional, organism-based; details: time 16.5 hrs
[26] = system: Mus musculus; assay: Reno-protective activity against LPS-induced acute kidney injury C57BL/6J mouse model assessed as decrease in BUN level at 10 mg/kg, ip administered twice at 30 mins prior to LPS challenge and 8 hrs post-LPS challenge and measured at 16 hrs post-LPS challenge; assay type: functional, organism-based; details: time 16.5 hrs

SMILES: O=C(NCc1cn(-c2cc(Cl)ccn2)nn1)c1cnc(-c2ccc(NS(=O)(=O)N3CCOCC3)cc2)s1
- inhibition [1]: 86.1%
- inhibition [2]: 78.2%
- inhibition ([3]; filed as antagonist): 55.2%
- inhibition ([4]; filed as antagonist): 54.3%
- pIC50 [5]: 7.00
- pIC50 [6]: 6.98
- CLint scaled [7]: 15.3 mL/min/kg
- half-life [8]: 114 min
- CLint scaled [9]: 154 mL/min/kg
- half-life [10]: 35.4 min

SMILES: CS(=O)(=O)Nc1cccc(-c2ccc(Cl)c(C(=O)NCc3cn(-c4cc(Cl)ccn4)nn3)c2)c1
- inhibition [1]: 76.9%
- inhibition [2]: 74.7%
- inhibition [3]: 30.8%
- inhibition [4]: 32.8%
- pIC50 [5]: 7.04
- pIC50 [6]: 5.73
- CLint scaled [7]: 30.6 mL/min/kg
- half-life [8]: 56.8 min
- CLint scaled [9]: 65.4 mL/min/kg
- half-life [10]: 83.5 min

SMILES: O=C(NCc1cn(-c2cc(Cl)ccn2)nn1)c1cnc(-c2cccc(NS(=O)(=O)N3CCOCC3)c2)s1
- inhibition [1]: 78.8%
- inhibition [2]: 112%
- inhibition ([3]; filed as antagonist): 46.5%
- inhibition ([4]; filed as antagonist): 82.4%
- pIC50 [5]: 6.36
- pIC50 [6]: 7.23
- CLint scaled [7]: 24.1 mL/min/kg
- half-life [8]: 72.2 min
- CLint scaled [9]: 215 mL/min/kg
- half-life [10]: 25.4 min

SMILES: O=C(NCC1(N2CCN(c3ccccc3)CC2)CCOCC1)c1cccnc1Sc1ccccc1
- inhibition [11]: 92%
- inhibition [12]: 89%
- inhibition [1]: 95.2%
- inhibition [2]: 92%
- inhibition ([3]; filed as antagonist): 93.8%
- inhibition ([4]; filed as antagonist): 87.3%
- CLint scaled [7]: 40.9 mL/min/kg
- half-life [8]: 42.5 min
- CLint scaled [9]: 88.2 mL/min/kg
- half-life [10]: 61.9 min
- pIC50 [13]: > 7.52
- AUC(0-t) at 24 h [14]: 310 ng·h/mL
- AUC(0-t) at 24 h [15]: 155 ng·h/mL
- clearance [16]: 538 mL/min/kg
- CL/F [17]: 1080 mL/min/kg
- Cmax [18]: 516 ng/mL
- Cmax [19]: 270 ng/mL
- half-life [20]: 46.2 min
- half-life [21]: 48 min
- Tmax [22]: 4.8 min
- Tmax [23]: 4.8 min
- bioavailability [24]: 49.9%
- Activity [25]: Active
- Activity [26]: Active

SMILES: COc1ccc(-c2ccc(Cl)c(C(=O)NCc3cn(-c4cc(Cl)ccn4)nn3)c2)cc1OC
- inhibition [1]: 59.2%
- inhibition [2]: 51%
- inhibition [3]: 35.7%
- inhibition [4]: inactive
- pIC50 [5]: 6.55
- pIC50 [6]: 5.75
- CLint scaled [7]: 17.8 mL/min/kg
- half-life [8]: 97.6 min
- CLint scaled [9]: 216 mL/min/kg
- half-life [10]: 25.3 min

SMILES: O=C(NCc1cn(-c2cc(Cl)ccn2)nn1)c1cnc(-c2cccc(NS(=O)(=O)C3CC3)c2)s1
- inhibition [1]: 62.5%
- inhibition [2]: 83.9%
- inhibition ([3]; filed as antagonist): 40%
- inhibition ([4]; filed as antagonist): 68.3%
- pIC50 [5]: 6.18
- pIC50 [6]: 7.16
- CLint scaled [7]: < 12 mL/min/kg
- half-life [8]: > 120 min
- CLint scaled [9]: < 12 mL/min/kg
- half-life [10]: > 120 min

SMILES: CS(=O)(=O)Nc1ccc(-c2ncc(C(=O)NCc3cn(-c4cc(Cl)ccn4)nn3)s2)cc1
- inhibition [1]: 52.3%
- inhibition [2]: 89.8%
- inhibition [3]: 26.6%
- inhibition ([4]; filed as antagonist): 71.6%
- pIC50 [5]: 6.47
- pIC50 [6]: 7.03
- CLint scaled [7]: < 12 mL/min/kg
- half-life [8]: > 120 min
- CLint scaled [9]: < 12 mL/min/kg
- half-life [10]: > 120 min

SMILES: CC(C)S(=O)(=O)c1ccc(-c2ncc(C(=O)NCc3cn(-c4cc(Cl)ccn4)nn3)s2)cc1
- inhibition [1]: 56.3%
- inhibition [2]: 92.6%
- inhibition [3]: 22.1%
- inhibition ([4]; filed as antagonist): 67.6%
- pIC50 [5]: 6.18
- pIC50 [6]: 6.46
- CLint scaled [7]: 40.4 mL/min/kg
- half-life [8]: 43 min
- CLint scaled [9]: 66.2 mL/min/kg
- half-life [10]: 82.5 min
